#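 Following 48 hours of exposure in 96-well plates, responses at five concentrations were used to interpolate endpoints linearly. Abbreviation: GI50, concentration required for 50% inhibition of growth.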 Activity calls are given as the source filed them. No stated cut-off is given here; in the data, active = GI50 up to about 1.1 µM and inactive = higher.
# Columns and labels:
# Assay in all cases: inhibition of tumour cell growth, NCI panel, 48 h
# OVCAR-8 = test system: OVCAR-8
# ACHN = test system: ACHN
# SK-MEL-5 = test system: SK-MEL-5
# 786-0 = test system: 786-0
# SK-MEL-28 = test system: SK-MEL-28
# MDA-N = test system: MDA-N
# PC-3 = test system: PC-3
# SF-268 = test system: SF-268
# DU-145 = test system: DU-145
# SK-MEL-2 = test system: SK-MEL-2
# SF-295 = test system: SF-295
# UACC-257 = test system: UACC-257
# HOP-92 = test system: HOP-92
# LOX IMVI = test system: LOX IMVI
# IGROV-1 = test system: IGROV-1
# SNB-19 = test system: SNB-19
# OVCAR-5 = test system: OVCAR-5
# Hs-578T = test system: Hs-578T
# TK-10 = test system: TK-10
# SR = test system: SR
SMILES,GI50 (OVCAR-8),GI50 (ACHN),GI50 (SK-MEL-5),GI50 (786-0),GI50 (SK-MEL-28),GI50 (MDA-N),GI50 (PC-3),GI50 (SF-268),GI50 (DU-145),GI50 (SK-MEL-2),GI50 (SF-295),GI50 (UACC-257),GI50 (HOP-92),GI50 (LOX IMVI),GI50 (IGROV-1),GI50 (SNB-19),GI50 (OVCAR-5),GI50 (Hs-578T),GI50 (TK-10),GI50 (SR)
CCOC(=O)c1c(O)nc(O)c(CC)c1C,> 100 µM (inactive),> 100 µM (inactive),> 100 µM (inactive),> 100 µM (inactive),> 100 µM (inactive),> 100 µM (inactive),> 100 µM (inactive),> 100 µM (inactive),> 100 µM (inactive),> 100 µM (inactive),> 100 µM (inactive),> 100 µM (inactive),> 100 µM (inactive),> 100 µM (inactive),> 100 µM (inactive),> 100 µM (inactive),> 100 µM (inactive),> 100 µM (inactive),> 100 µM (inactive),–
C/C(=C\c1ccc2c(c1)OCO2)[N+](=O)[O-],2.77 µM (inactive),2.01 µM (inactive),1.91 µM (inactive),1.56 µM (inactive),2.74 µM (inactive),–,2.64 µM (inactive),3.44 µM (inactive),2.23 µM (inactive),2.99 µM (inactive),2.85 µM (inactive),2.43 µM (inactive),2.51 µM (inactive),0.315 µM (active),2.34 µM (inactive),2.49 µM (inactive),3.96 µM (inactive),5.14 µM (inactive),2.45 µM (inactive),0.323 µM (active)
C/C(=N/NC(=S)Nc1ccc(Cl)cc1)c1cccc(/C(C)=N\NC(=S)Nc2ccc(Cl)cc2)n1,1.85 µM (inactive),2.54 µM (inactive),1.86 µM (inactive),0.594 µM (active),23.2 µM (inactive),17.1 µM (inactive),3.47 µM (inactive),23.8 µM (inactive),26.1 µM (inactive),5.41 µM (inactive),3.34 µM (inactive),4.5 µM (inactive),3.17 µM (inactive),4.58 µM (inactive),1.74 µM (inactive),9.73 µM (inactive),20 µM (inactive),–,2.81 µM (inactive),1.19 µM (inactive)
CC(=O)OC(CN1CCN(c2ccccn2)CC1)Cn1sc2nc(C)cc(C)c2c1=O (stereo not drawn),28.7 µM (inactive),16.4 µM (inactive),13.2 µM (inactive),14.9 µM (inactive),20 µM (inactive),–,17.5 µM (inactive),17.3 µM (inactive),19 µM (inactive),18.3 µM (inactive),> 100 µM (inactive),17.7 µM (inactive),48.3 µM (inactive),21.3 µM (inactive),18.2 µM (inactive),> 100 µM (inactive),17.5 µM (inactive),20.7 µM (inactive),17.3 µM (inactive),4.61 µM (inactive)
CCCC/C=C/C1Cc2ccccc2CN1S(=O)(=O)c1ccc(C)cc1 (stereo not drawn),11.3 µM (inactive),5.24 µM (inactive),3.28 µM (inactive),12.3 µM (inactive),10.5 µM (inactive),–,–,10.2 µM (inactive),–,14.3 µM (inactive),13.9 µM (inactive),4.25 µM (inactive),2.15 µM (inactive),8.34 µM (inactive),12.3 µM (inactive),24.2 µM (inactive),12.5 µM (inactive),–,20.9 µM (inactive),2.77 µM (inactive)
CCOC(=O)CCC(NC(=O)c1ccc(Nc2cnc3cc(C(F)(F)F)ccc3n2)cc1)C(=O)OCC (stereo not drawn),27.2 µM (inactive),63.2 µM (inactive),> 100 µM (inactive),9.75 µM (inactive),> 100 µM (inactive),> 100 µM (inactive),–,14.1 µM (inactive),> 100 µM (inactive),> 100 µM (inactive),12.8 µM (inactive),> 100 µM (inactive),23.9 µM (inactive),> 100 µM (inactive),42 µM (inactive),11.7 µM (inactive),> 100 µM (inactive),6.21 µM (inactive),> 87.9 µM (inactive),> 100 µM (inactive)
OC1CC(O)c2c(Cl)sc(Cl)c21 (stereo not drawn),41.5 µM (inactive),33.2 µM (inactive),47 µM (inactive),34.4 µM (inactive),29.9 µM (inactive),> 100 µM (inactive),–,> 100 µM (inactive),43.4 µM (inactive),19.5 µM (inactive),8.41 µM (inactive),24.8 µM (inactive),23.4 µM (inactive),52.6 µM (inactive),> 100 µM (inactive),–,28.8 µM (inactive),36 µM (inactive),36 µM (inactive),> 100 µM (inactive)
CCCOC(=O)c1cc(C(=CCC[C@H]2CC[C@@]3(C)[C@@H](CC[C@@H]4[C@@H]3CC[C@]3(C)[C@@H](C(C)CCCC(C)C)CC[C@@H]43)C2)c2cc(Cl)c(O)c(C(=O)OCCC)c2)cc(Cl)c1O (stereo partly drawn),> 50 µM (inactive),–,> 50 µM (inactive),> 50 µM (inactive),–,> 50 µM (inactive),> 50 µM (inactive),> 50 µM (inactive),> 50 µM (inactive),> 50 µM (inactive),–,–,–,> 50 µM (inactive),> 50 µM (inactive),> 50 µM (inactive),–,> 50 µM (inactive),–,–
CCOc1ncn(-c2ccc(NC(=S)NC3OC(CO)C(O)C(O)C3O)cc2)n1 (stereo not drawn),> 100 µM (inactive),–,> 100 µM (inactive),> 100 µM (inactive),> 100 µM (inactive),> 100 µM (inactive),> 100 µM (inactive),> 100 µM (inactive),> 100 µM (inactive),–,> 100 µM (inactive),> 100 µM (inactive),> 100 µM (inactive),> 100 µM (inactive),> 100 µM (inactive),> 100 µM (inactive),> 100 µM (inactive),–,> 100 µM (inactive),> 100 µM (inactive)
COc1cc(Cc2nccc3cc(OC)c(OC)cc23)c(C(C)=O)cc1OC,–,153 µM (inactive),57.4 µM (inactive),65.2 µM (inactive),–,28.2 µM (inactive),> 100 µM (inactive),1.56 µM (inactive),> 100 µM (inactive),226 µM (inactive),> 300 µM (inactive),–,150 µM (inactive),23.6 µM (inactive),173 µM (inactive),300 µM (inactive),> 300 µM (inactive),–,139 µM (inactive),> 750 µM (inactive)
C=CC1CCC[N+]1(CC(=O)OCC)Cc1ccccc1 (stereo not drawn),> 100 µM (inactive),> 100 µM (inactive),> 100 µM (inactive),> 100 µM (inactive),> 100 µM (inactive),> 100 µM (inactive),> 100 µM (inactive),> 100 µM (inactive),> 100 µM (inactive),–,> 100 µM (inactive),> 100 µM (inactive),> 100 µM (inactive),–,> 100 µM (inactive),> 100 µM (inactive),> 100 µM (inactive),–,> 100 µM (inactive),> 100 µM (inactive)
CO/C(=N\N=C\c1ccc(OC)c(OC)c1)c1ccncc1,> 10 µM (inactive),–,> 10 µM (inactive),> 10 µM (inactive),–,> 10 µM (inactive),–,> 10 µM (inactive),> 10 µM (inactive),–,–,> 10 µM (inactive),> 10 µM (inactive),> 10 µM (inactive),> 10 µM (inactive),–,–,> 10 µM (inactive),> 10 µM (inactive),> 10 µM (inactive)
CC(C)c1cc(=O)[nH]c2cc(N)ccc12,> 100 µM (inactive),> 100 µM (inactive),> 100 µM (inactive),> 100 µM (inactive),> 100 µM (inactive),> 100 µM (inactive),> 100 µM (inactive),–,> 100 µM (inactive),> 100 µM (inactive),> 100 µM (inactive),> 100 µM (inactive),> 100 µM (inactive),> 100 µM (inactive),> 100 µM (inactive),> 100 µM (inactive),> 100 µM (inactive),–,–,> 100 µM (inactive)
O=C(O)CCCn1nnc2c(=O)[nH][nH]c(=O)c21,> 100 µM (inactive),> 100 µM (inactive),> 100 µM (inactive),> 100 µM (inactive),> 100 µM (inactive),> 100 µM (inactive),> 100 µM (inactive),–,> 100 µM (inactive),> 100 µM (inactive),> 100 µM (inactive),> 100 µM (inactive),> 100 µM (inactive),> 100 µM (inactive),–,> 100 µM (inactive),> 100 µM (inactive),–,> 100 µM (inactive),> 100 µM (inactive)
CCCCCCOC(=O)C(N)Cc1ccc(OC)cc1 (stereo not drawn),> 100 µM (inactive),> 100 µM (inactive),> 100 µM (inactive),> 100 µM (inactive),> 100 µM (inactive),–,> 100 µM (inactive),> 100 µM (inactive),> 100 µM (inactive),> 100 µM (inactive),> 100 µM (inactive),> 100 µM (inactive),5.55 µM (inactive),> 100 µM (inactive),> 100 µM (inactive),> 100 µM (inactive),> 100 µM (inactive),> 100 µM (inactive),> 100 µM (inactive),> 100 µM (inactive)
O=C(OCCOCBr)c1ccccc1,> 100 µM (inactive),> 100 µM (inactive),> 100 µM (inactive),> 100 µM (inactive),> 100 µM (inactive),–,–,> 100 µM (inactive),–,> 100 µM (inactive),> 100 µM (inactive),> 100 µM (inactive),> 100 µM (inactive),> 100 µM (inactive),> 100 µM (inactive),> 100 µM (inactive),> 100 µM (inactive),–,> 100 µM (inactive),> 100 µM (inactive)

# — ChEMBL document CHEMBL1201862, “PubChem BioAssay data set” (2004)
